# Where a SMILES comes first, the peptide text is derived from it. [ ]: non-standard residue; d: D form. dTrp(1-Me) = Cn1cc(C[C@@H](N)C(=O)O)c2ccccc21
# Key:
# [1] = Chemical stability of compound in saline assessed as compound remaining at 5 uM measured after 24 hrs by LC-MS/MS analysis; format: physicochemical; details: read-out: Stabilty
# [2] = Chemical stability of compound in 0.1 N aqueous HCl buffer assessed as compound remaining at pH 1 at 5 uM measured after 1.5 hrs by LC-MS/MS analysis; format: physicochemical; details: pH 1, 1.5 h
# [3] = Chemical stability of compound in 0.1 N aqueous HCl buffer assessed as compound remaining at pH 1 at 5 uM measured after 24 hrs by LC-MS/MS analysis; format: physicochemical; details: pH 1, 24 h
# [4] = Chemical stability of compound in PBS buffer assessed as compound remaining at pH 7.4 at 5 uM measured after 6 hrs by LC-MS/MS analysis; format: physicochemical; details: read-out: Stabilty
# [5] = Chemical stability of compound in PBS buffer assessed as compound remaining at pH 7.4 at 5 uM measured after 24 hrs by LC-MS/MS analysis; format: physicochemical; details: read-out: Stabilty
# [6] = Chemical stability of compound in simulated gastric fluid assessed as compound remaining at 5 uM measured after 1.5 hrs by LC-MS/MS analysis; format: ADME, physicochemical; details: read-out: Stabilty
# [7] = Chemical stability of compound in simulated gastric fluid assessed as compound remaining at 5 uM measured after 24 hrs by LC-MS/MS analysis; format: ADME, physicochemical; details: read-out: Stabilty
# [8] = Chemical stability of compound in simulated intestinal fluid assessed as compound remaining at 5 uM measured after 3 hrs by LC-MS/MS analysis; format: ADME, physicochemical; details: read-out: Stabilty
# [9] = Chemical stability of compound in simulated intestinal fluid assessed as compound remaining at 5 uM measured after 24 hrs by LC-MS/MS analysis; format: ADME, physicochemical; details: read-out: Stabilty
# [10] = Stability in mouse plasma assessed as parent compound remaining measured after 2 hrs by LC-MS/MS analysis; format: ADME, cell-free; details: read-out: Stabilty
# [11] = Stability in rat plasma assessed as parent compound remaining measured after 2 hrs by LC-MS/MS analysis; format: ADME, cell-free; details: read-out: Stabilty
# [12] = Stability in human plasma assessed as parent compound remaining measured after 6 hrs by LC-MS/MS analysis; format: ADME, cell-free; details: read-out: Stabilty
# [13] = Stability in human plasma assessed as parent compound remaining measured after 24 hrs by LC-MS/MS analysis; format: ADME, cell-free; details: read-out: Stabilty
# [14] = Dose normalized Cmax in rat at 10 mg/kg, po measured upto 72 hrs by LC-MS/MS analysis; format: ADME, organism-based; details: in vivo
# [15] = Dose normalized AUC (0 to infinity) in rat at 10 mg/kg, po measured upto 72 hrs by LC-MS/MS analysis; format: ADME, organism-based; details: in vivo
# [16] = Change in normalised Cmax in rat at 10 mg/kg, po measured upto 72 hrs by LC-MS/MS analysis; format: ADME, organism-based; details: in vivo
# [17] = Change in normalised AUCinfinity in rat at 10 mg/kg, po measured upto 72 hrs by LC-MS/MS analysis; format: ADME, organism-based; details: in vivo
# [18] = Change in Cmax in rat at 37 umol/kg, po measured upto 72 hrs by LC-MS/MS analysis; format: ADME, organism-based; details: in vivo, at 37 µmol/kg
# [19] = Change in AUC (infinity) in rat at 37 umol/kg, po measured upto 72 hrs by LC-MS/MS analysis; format: ADME, organism-based; details: in vivo, at 37 µmol/kg
structure (smiles),measurement,setting,value
Cl.Cn1cc(C[C@@H](N)C(=O)OCCC2CCOCC2)c2ccccc21,"remaining at 24 h, 5 µM",[1],76%
same,Stabilty,[2],52%
same,Stabilty,[3],76%
same,"remaining at 6 h, 5 µM",[4],85%
same,"remaining at 24 h, 5 µM",[5],0%
same,"remaining at 1.5 h, 5 µM",[6],85%
same,"remaining at 24 h, 5 µM",[7],60%
same,"remaining at 3 h, 5 µM",[8],67%
same,"remaining at 24 h, 5 µM",[9],0%
same,remaining at 2 h,[10],0%
same,remaining at 2 h,[11],0%
same,remaining at 6 h,[12],85%
same,remaining at 24 h,[13],54%
same,Cmax/dose,[14],15 µM
same,AUC/dose,[15],774 µM·h
same,Activity,[16],-14%
same,Activity,[17],52%
CC[C@H](C)[C@H](N)C(=O)N[C@H](Cc1cn(C)c2ccccc12)C(=O)O.Cl,"remaining at 24 h, 5 µM",[1],98%
same,Stabilty,[2],92%
same,Stabilty,[3],98%
same,"remaining at 6 h, 5 µM",[4],100%
same,"remaining at 24 h, 5 µM",[5],100%
same,"remaining at 1.5 h, 5 µM",[6],81%
same,"remaining at 24 h, 5 µM",[7],77%
same,"remaining at 3 h, 5 µM",[8],94%
same,"remaining at 24 h, 5 µM",[9],0%
same,remaining at 2 h,[10],80%
same,remaining at 2 h,[11],54%
same,remaining at 6 h,[12],84%
same,remaining at 24 h,[13],86%
same,Cmax/dose,[14],12.5 µM
same,AUC/dose,[15],316 µM·h
same,Activity,[16],-28%
same,Activity,[17],-38%
CCOC(=O)[C@@H](Cc1cn(C)c2ccccc12)NC(=O)[C@@H](N)CCC(N)=O.O=P(O)(O)O,Activity,[18],-32%
same,Activity,[19],-28%
CN(C)CCOC(=O)[C@H](N)Cc1cn(C)c2ccccc12.Cl,"remaining at 24 h, 5 µM",[1],47%
same,Stabilty,[2],3%
same,Stabilty,[3],47%
same,"remaining at 6 h, 5 µM",[4],0%
same,"remaining at 24 h, 5 µM",[5],0%
same,"remaining at 1.5 h, 5 µM",[6],2%
same,"remaining at 24 h, 5 µM",[7],2%
same,"remaining at 3 h, 5 µM",[8],0%
same,"remaining at 24 h, 5 µM",[9],0%
same,remaining at 2 h,[10],0%
same,remaining at 2 h,[11],0%
same,remaining at 6 h,[12],10%
same,remaining at 24 h,[13],2%
same,Cmax/dose,[14],39.5 µM
same,AUC/dose,[15],731 µM·h
same,Activity,[16],128%
same,Activity,[17],44%
"CC(C)C(NC(=O)[C@H](N)Cc1cn(C)c2ccccc12)C(=O)O.Cl (single isomer, unassigned)","remaining at 24 h, 5 µM",[1],98%
same,Stabilty,[2],51%
same,Stabilty,[3],98%
same,"remaining at 6 h, 5 µM",[4],99%
same,"remaining at 24 h, 5 µM",[5],37%
same,"remaining at 1.5 h, 5 µM",[6],54%
same,"remaining at 24 h, 5 µM",[7],49%
same,"remaining at 3 h, 5 µM",[8],62%
same,"remaining at 24 h, 5 µM",[9],64%
same,remaining at 2 h,[10],89%
same,remaining at 2 h,[11],100%
same,remaining at 6 h,[12],68%
same,remaining at 24 h,[13],39%
same,Cmax/dose,[14],1.6 µM
same,AUC/dose,[15],202 µM·h
same,Activity,[16],-91%
same,Activity,[17],-60%
CCOC(=O)[C@@H](Cc1cn(C)c2ccccc12)NC(=O)[C@@H](N)CCC(N)=O.O=S(=O)(O)O,Activity,[18],20%
same,Activity,[19],-20%
Cn1cc(C[C@@H](N)C(=O)OCC(O)CO)c2ccccc21.O=S(=O)(O)O (some centres undefined),Activity,[18],2%
same,Activity,[19],21%
Cn1cc(C[C@@H](NC(=O)CN)C(=O)O)c2ccccc21.O=P(O)(O)O (H-Gly-[dTrp(1-Me)]-OH),Activity,[18],-3%
same,Activity,[19],3%
CS(=O)(=O)O.Cn1cc(C[C@@H](N)C(=O)OCC(O)CO)c2ccccc21 (some centres undefined),Activity,[18],-27%
same,Activity,[19],-27%
Cn1cc(C[C@@H](NC(=O)[C@@H](N)CCCCN)C(=O)O)c2ccccc21.O=S(=O)(O)O,Activity,[18],-4%
same,Activity,[19],10%
CCOC(=O)[C@@H](Cc1cn(C)c2ccccc12)NC(=O)[C@@H](N)CC(C)C.O=S(=O)(O)c1ccccc1,Activity,[18],29%
same,Activity,[19],45%
CCOC(=O)[C@@H](Cc1cn(C)c2ccccc12)NC(=O)[C@@H](N)CCC(N)=O.CS(=O)(=O)O,Activity,[18],4%
same,Activity,[19],-12%

# Source: ChEMBL document CHEMBL4837181 (Eur J Med Chem, 2020)
